Measured values: patent EP4685142A1, “TRIAZINE COMPOUND AND USE THEREOF” (Chengdu Zenitar Biomedical Technology Co., Ltd., priority 2023, dated 2024)

Experiments:
NLRP3 inflammasome = biological target: T1, NLRP3 inflammasome (Homo sapiens, UniProt Q96P20); experiment: Inhibitory activity of NLRP3 inflammasome in human monocytes (THP-1 cells, LPS + Nigericin, IL-1β ELISA); assay type: cell-based; conditions: THP-1 cells, PMA, LPS 1 µg/mL 3 h, drug 40 min, Nigericin 10 µM 40 min, IL-1β ELISA; read-out: IC50
T1 construct: host or cells: THP-1 cells
T1 sequence (Q96P20 whole entry): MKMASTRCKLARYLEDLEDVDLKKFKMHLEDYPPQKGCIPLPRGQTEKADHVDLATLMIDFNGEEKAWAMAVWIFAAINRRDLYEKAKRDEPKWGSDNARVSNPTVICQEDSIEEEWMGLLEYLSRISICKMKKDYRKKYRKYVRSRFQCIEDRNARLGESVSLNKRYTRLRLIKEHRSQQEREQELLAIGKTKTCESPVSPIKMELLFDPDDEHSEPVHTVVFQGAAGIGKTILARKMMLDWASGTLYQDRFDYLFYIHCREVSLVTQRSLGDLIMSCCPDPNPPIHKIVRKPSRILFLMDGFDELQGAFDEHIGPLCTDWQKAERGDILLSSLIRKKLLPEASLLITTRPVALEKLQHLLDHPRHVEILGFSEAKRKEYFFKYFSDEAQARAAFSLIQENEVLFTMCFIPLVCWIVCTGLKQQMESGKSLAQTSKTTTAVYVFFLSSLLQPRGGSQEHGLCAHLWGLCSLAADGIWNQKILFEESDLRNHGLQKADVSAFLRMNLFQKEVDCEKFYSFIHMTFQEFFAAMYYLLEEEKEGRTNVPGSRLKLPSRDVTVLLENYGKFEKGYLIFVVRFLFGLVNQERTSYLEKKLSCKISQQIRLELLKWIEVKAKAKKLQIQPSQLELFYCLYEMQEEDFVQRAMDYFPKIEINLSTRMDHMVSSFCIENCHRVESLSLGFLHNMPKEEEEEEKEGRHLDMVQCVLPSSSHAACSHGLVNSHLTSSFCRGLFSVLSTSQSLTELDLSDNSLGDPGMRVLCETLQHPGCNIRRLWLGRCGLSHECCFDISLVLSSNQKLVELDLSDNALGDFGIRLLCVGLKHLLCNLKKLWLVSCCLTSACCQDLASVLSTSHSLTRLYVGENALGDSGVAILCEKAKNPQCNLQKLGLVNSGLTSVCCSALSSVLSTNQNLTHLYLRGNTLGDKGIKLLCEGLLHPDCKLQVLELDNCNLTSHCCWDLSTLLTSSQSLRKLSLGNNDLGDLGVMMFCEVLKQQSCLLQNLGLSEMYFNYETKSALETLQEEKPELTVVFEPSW
How it was run: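 THP-1 cells differentiated overnight with 10 µM PMA at 37°C and 5% CO2, then primed 3 h with 1 µg/mL LPS in Opti-MEM. Compound applied for 40 min, followed by 40 min with 10 µM nigericin. IL-1β in supernatant measured by ELISA.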

[1] = tested on: IL-1β in human PBMC cells; experiment: Inhibitory activity on IL-1β in human PBMC cells (LPS + Nigericin, ELISA); assay type: cell-based; conditions: human PBMC, LPS 1 µg/mL 3 h, drug 40 min, Nigericin 10 µM 40 min, IL-1β ELISA; read-out: IC50
Method: 2. Determination of inhibitory activity of compounds on IL-1β in human PBMC cells
Human peripheral blood mononuclear cells (PBMCs) were taken and cultured overnight in RPMI 1640 culture medium containing 10% FBS and antibiotics before stimulation. On the second day, the culture medium was replaced with a serum-reduced culture medium, the grown cells were stimulated for 3 h with LPS at a working concentration of 1 µg/mL, stimulated for 40 min with a drug, and then stimulated for 40 min with Nigericin at a concentration of 10 µM, the cell supernatant was harvested, and the yield of IL-1β was detected by ELISA.
The experimental results are shown in Table 3: Table 3 Inhibitory effect of compounds on IL-1β in PBMC cells

[2] = Pharmacokinetic evaluation in Balb/c mice; assay type: in vivo; conditions: male, Balb/c, mouse, in vivo, po, 5 mg/kg
LPS-induced mice = experiment: LPS-induced mouse model, survival; assay type: in vivo, Balb/c mice; conditions: for 72h Survival rate: 1 h before 10 mg/kg LPS i.p.
[3] = biological target: T2, hERG potassium ion channel (Homo sapiens, UniProt Q12809); conditions: human
T2 sequence (Q12809 whole entry): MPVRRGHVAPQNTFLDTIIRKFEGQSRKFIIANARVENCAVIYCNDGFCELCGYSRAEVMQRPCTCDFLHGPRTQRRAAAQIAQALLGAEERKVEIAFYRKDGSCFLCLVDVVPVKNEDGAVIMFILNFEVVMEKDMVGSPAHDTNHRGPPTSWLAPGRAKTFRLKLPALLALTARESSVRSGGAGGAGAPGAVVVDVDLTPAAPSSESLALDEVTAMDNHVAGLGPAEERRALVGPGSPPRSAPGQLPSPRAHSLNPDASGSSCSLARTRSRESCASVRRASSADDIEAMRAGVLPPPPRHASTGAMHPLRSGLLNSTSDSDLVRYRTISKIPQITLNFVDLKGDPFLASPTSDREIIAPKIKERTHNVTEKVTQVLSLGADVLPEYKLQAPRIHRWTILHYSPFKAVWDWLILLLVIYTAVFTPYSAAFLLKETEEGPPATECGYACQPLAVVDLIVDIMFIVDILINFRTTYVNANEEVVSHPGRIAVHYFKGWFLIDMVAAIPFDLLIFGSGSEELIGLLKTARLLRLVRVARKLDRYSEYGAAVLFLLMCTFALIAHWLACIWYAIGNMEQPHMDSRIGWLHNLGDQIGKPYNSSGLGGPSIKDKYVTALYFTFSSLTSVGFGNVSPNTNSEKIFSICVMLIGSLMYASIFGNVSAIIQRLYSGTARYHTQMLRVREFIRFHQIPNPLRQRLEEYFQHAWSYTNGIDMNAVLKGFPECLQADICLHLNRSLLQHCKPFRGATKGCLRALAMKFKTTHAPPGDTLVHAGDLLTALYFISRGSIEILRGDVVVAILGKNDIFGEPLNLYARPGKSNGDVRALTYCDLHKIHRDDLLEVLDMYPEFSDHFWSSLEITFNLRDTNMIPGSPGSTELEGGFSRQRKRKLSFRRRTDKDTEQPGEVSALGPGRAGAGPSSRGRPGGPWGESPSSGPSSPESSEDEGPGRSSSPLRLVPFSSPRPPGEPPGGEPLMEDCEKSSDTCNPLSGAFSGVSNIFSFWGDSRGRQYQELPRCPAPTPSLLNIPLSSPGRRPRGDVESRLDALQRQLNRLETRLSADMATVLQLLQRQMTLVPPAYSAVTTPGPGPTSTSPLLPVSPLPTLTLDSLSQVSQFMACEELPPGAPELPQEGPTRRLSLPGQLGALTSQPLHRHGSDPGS

[4] = In vivo brain-to-plasma ratio in mice; conditions: for Brain: male mice, oral 10 mg/kg; for Kp at 1 h / Kp at 6 h / concentration at 1 h / concentration at 6 h: male, mouse, po, 10 mg/kg; for Kp at 1 h / Kp at 6 h: brain/plasma; for concentration at 1 h / concentration at 6 h: plasma
Method: Evaluation of in vivo brain-to-plasma ratio of compound
Experimental purpose: to obtain the brain-to-plasma ratio of the compound
Experimental protocol: the brain-to-plasma ratio of the compound was investigated by monitoring the content of the compound in mouse brain and plasma.
Experimental procedure: the compound was weighed, followed by adding a small amount of DMSO and adding a sodium chloride solution for injection, to prepare a 10 mg · mL^-1 compound solution for administration. Male mice were orally administered at 10 mg · kg^-1, and whole plasma and whole brain tissue were sampled at 1 h and 6 h after administration (n=3). […] A centrifuge tube was weighed as M1, the centrifuge tube containing the whole brain tissue was weighed as M2, the centrifuge tube containing water for homogenization was weighed as M3, and the centrifuge tube after the removal of 30 µL homogenate was weighed as M4.
Standard curve range: 10-10,000 ng·mL^-1. Content of drug in brain = measured value × 0.03 × (M3−M1)/[(M2−M1)×(M3−M4)].

[5] = biological target: T2, hERG potassium ion channel; experiment: Inhibition of hERG potassium ion channel (CHO cells stably expressing hERG, Qpatch)
human NLRP3 protein = human NLRP3 protein (Homo sapiens, UniProt Q96P20); experiment: Affinity for human NLRP3 protein (Biacore T200, CM5 chip); assay type: binding; conditions: protein immobilized on CM5 chip, 25°C
Chain of human NLRP3 protein (Q96P20 whole entry): as the sequence (Q96P20 whole entry) above

[6] = In vivo distribution of cerebrospinal fluid and plasma; conditions: male, mouse, iv, 5 mg/kg
Method: Evaluation of in vivo distribution of cerebrospinal fluid and plasma after compound administration
Experimental procedure: the compound was weighed, followed by adding a small amount of DMSO and then adding a sodium chloride solution for injection, to prepare a 5 mg·mL^-1 compound solution for administration. […] Standard curve range: 1-1000 ng·mL^-1.

[7] = 50 mg/kg, First cage (6 mice for Compound 3, 5 mice for Compound 4)
[8] = 50 mg/kg, Second cage (6 mice for Compound 3, 5 mice for Compound 4)

SMILES: CN1CCC[C@@H](Nc2nnc(-c3ccc4sccc4c3O)n(C)c2=O)C1 [Compound 4, (R)-3-(4-hydroxybenzo[b]thiophen-5-yl)-4-methyl-6-((1-methylpiperidin-3-yl)amino)-1,2,4-tr iazin-5(4H)-ketone]
- IC50 (NLRP3 inflammasome): 4.21 nM
- IC50 [1]: 1.42 nM
- AUC(0-t) [2]: 16900 ng·h/mL
- Cmax [2]: 4610 ng/mL
- half-life [2]: 3 h
- 72h Survival rate (LPS-induced mice; 25 mg/kg oral): 80%
- survival status of mice (mice alive) 12h (LPS-induced mice; 25 mg/kg, First cage (5 mice)): 5
- survival status of mice (mice alive) 24h (LPS-induced mice; 25 mg/kg, First cage (5 mice)): 5
- survival status of mice (mice alive) 36h (LPS-induced mice; 25 mg/kg, First cage (5 mice)): 5
- survival status of mice (mice alive) 48h (LPS-induced mice; 25 mg/kg, First cage (5 mice)): 5
- survival status of mice (mice alive) 72h (LPS-induced mice; 25 mg/kg, First cage (5 mice)): 5
- survival status of mice (mice alive) 12h (LPS-induced mice; 25 mg/kg, Second cage (5 mice)): 5
- survival status of mice (mice alive) 24h (LPS-induced mice; 25 mg/kg, Second cage (5 mice)): 5
- survival status of mice (mice alive) 36h (LPS-induced mice; 25 mg/kg, Second cage (5 mice)): 4
- survival status of mice (mice alive) 48h (LPS-induced mice; 25 mg/kg, Second cage (5 mice)): 4
- survival status of mice (mice alive) 72h (LPS-induced mice; 25 mg/kg, Second cage (5 mice)): 3
- 72h Survival rate (LPS-induced mice; 50 mg/kg oral): 100%
- survival status of mice (mice alive) 12h (LPS-induced mice; [7]): 5
- survival status of mice (mice alive) 24h (LPS-induced mice; [7]): 5
- survival status of mice (mice alive) 36h (LPS-induced mice; [7]): 5
- survival status of mice (mice alive) 48h (LPS-induced mice; [7]): 5
- survival status of mice (mice alive) 72h (LPS-induced mice; [7]): 5
- survival status of mice (mice alive) 12h (LPS-induced mice; [8]): 5
- survival status of mice (mice alive) 24h (LPS-induced mice; [8]): 5
- survival status of mice (mice alive) 36h (LPS-induced mice; [8]): 5
- survival status of mice (mice alive) 48h (LPS-induced mice; [8]): 5
- survival status of mice (mice alive) 72h (LPS-induced mice; [8]): 5
- inhibitory effects on the hERG potassium ion channel (conclusion in words) [3]: Conclusion: compounds 3, 4, 5, 9, 16, 17, 24, 30, 40, 41, 42, 43, 54 and others have weak inhibitory effects on the hERG potassium ion channel, having weaker inhibitory effect than the reference compound Ref-1.
- Brain ([4]; 1 h): 1780 ng/g
- Brain ([4]; 6 h): 335 ng/g
- Kp at 1 h [4]: 0.53
- Kp at 6 h [4]: 0.25
- concentration at 1 h [4]: 3340 ng/mL
- concentration at 6 h [4]: 1370 ng/mL
- 20 uM Inhibition ratio [5]: 14.87%

SMILES: CN1C[C@H](F)C[C@@H](Nc2nnc(-c3ccc4sccc4c3O)n(C)c2=O)C1 [Compound 40]
- IC50 (NLRP3 inflammasome): 2.97 nM
- AUC(0-t) [2]: 40400 ng·h/mL
- Cmax [2]: 15000 ng/mL
- half-life [2]: 2.86 h
- 72h Survival rate (LPS-induced mice; 25 mg/kg oral): 90%
- survival status of mice (mice alive) 12h (LPS-induced mice; 25 mg/kg, First cage (5 mice)): 5
- survival status of mice (mice alive) 24h (LPS-induced mice; 25 mg/kg, First cage (5 mice)): 5
- survival status of mice (mice alive) 36h (LPS-induced mice; 25 mg/kg, First cage (5 mice)): 5
- survival status of mice (mice alive) 48h (LPS-induced mice; 25 mg/kg, First cage (5 mice)): 5
- survival status of mice (mice alive) 72h (LPS-induced mice; 25 mg/kg, First cage (5 mice)): 5
- survival status of mice (mice alive) 12h (LPS-induced mice; 25 mg/kg, Second cage (5 mice)): 5
- survival status of mice (mice alive) 24h (LPS-induced mice; 25 mg/kg, Second cage (5 mice)): 5
- survival status of mice (mice alive) 36h (LPS-induced mice; 25 mg/kg, Second cage (5 mice)): 5
- survival status of mice (mice alive) 48h (LPS-induced mice; 25 mg/kg, Second cage (5 mice)): 4
- survival status of mice (mice alive) 72h (LPS-induced mice; 25 mg/kg, Second cage (5 mice)): 4
- Kd (human NLRP3 protein): 62.1 nM
- inhibitory effects on the hERG potassium ion channel (conclusion in words) [3]: Conclusion: compounds 3, 4, 5, 9, 16, 17, 24, 30, 40, 41, 42, 43, 54 and others have weak inhibitory effects on the hERG potassium ion channel, having weaker inhibitory effect than the reference compound Ref-1.
- Brain ([4]; 1 h): 1350 ng/g
- Brain ([4]; 6 h): 199 ng/g
- Kp at 1 h [4]: 0.19
- Kp at 6 h [4]: 0.14
- concentration at 1 h [4]: 7240 ng/mL
- concentration at 6 h [4]: 1460 ng/mL
- concentration at 0.25 h ([6]; cerebrospinal fluid): 191 ng/g
- concentration at 2 h ([6]; cerebrospinal fluid): 0.51 ng/g
- concentration at 0.25 h ([6]; plasma): 5030 ng/mL
- concentration at 2 h ([6]; plasma): 826 ng/mL
- 20 uM Inhibition ratio [5]: 3.48%
